Data as given in patent US6239145A, “Nitroxyl compounds and drugs and reagents containing the same as the active ingredient” (Daiitchi Radioisotope Laboratories, Ltd., priority 1997, dated 2001).

Key:
[1] = Organ distribution in mice by X-band ESR; settings: for Blood (% dose) / Brain (% dose): vena caudalis, 7.5 μmol (2.5 μmol for 3-carboxy-PROXYL acetoxymethyl ester)
Experimental: (§5) The test was performed using sixteen groups of three mice each (ddY, female) as experimental animals as described below. 7.5 μmol of the test samples (2.5 μmol for 3-carboxy-PROXYL acetoxymethyl ester) were administered to the vena caudalis of the mice under ether, and allowed to stand for 3, 10, and 30 minutes, respectively. The mice were then dehematized quickly and the brain was removed. The brain was homogenized with a phosphate buffer solution in an amount nine times that of the removed brain. The blood was diluted with a phosphate buffer solution in an amount nine times thereof. A potassium ferricyanide solution was added to part of the tissue thus treated so that the final concentration was 1 mM. The test samples which had become hydroxylamines by the active oxygen and the like in vivo were converted to nitroxide radicals (one electron oxidation) to prepare ESR samples.
(§6) The concentration of the test samples after one electron oxidation was measured by x-band ESR and determined as the concentration of the samples in vivo. The test sample solution in an amount equal to that administered to the mice was prepared. This solution was treated in the same way, beginning from the addition of the nine-fold phosphate buffer solution. The concentration of the test sample was measured by x-band ESR and was determined as the total dosage. 15 mm of each sample taken into a 100 μl capillary (length 116.5 mm) was put into a quartz cell to measure the ESR spectrum under the following conditions.
(§7) Measuring device: Electron spin resonance spectrometry "JES-RE1X" (manufactured by JEOL Ltd.)
Magnetic field: 331.5±5 mT
Time constant: 0.03 second
(§8) The ratio of the test samples in the brain and blood to the total dosage (% dose), the value obtained by dividing the % dose by the weight of the brain and blood (% dose/g), and the ratio of the % dose/g of the brain, which was the target organ, to the % dose/g of the blood were calculated from the ESR spectrum.

in vivo = settings: mouse, iv
Experimental: as §5, §6, §7
Magnetic field: 331.5±5 mT
Time constant: 0.03 second
as §8

mouse brain = assay type: in vivo; settings: 2.5 μmol, vena caudalis
Experimental: . An L band ESR-CT image of the head axial transverse section was measured under the following conditions.
Measuring device: Electron spin resonance spectrometry
"JES-RE31" (manufactured by JEOL Ltd.)
Magnetic field gradient: 0.45 mT/cm
Projection: 18 (every 10°)
Magnetic field modulation: 100 kHz
Time constant: 0.003 second
Measurement temperature: room temperature

in vitro = in vitro ADME; settings: carboxylesterase, 37° C., mean ± SD, n = 3, read-out: Hydrolysis Rate; for metabolised at 10 s: 10 sec., SD printed on next line: 0.43 (methyl ester), 11.9 (acetoxymethyl ester); for metabolised at 1 min: SD printed on next line: 0.34 (methyl ester), 3.4 (acetoxymethyl ester); for metabolised at 0.05 h: 3 min., 1.1 (acetoxymethyl ester); for metabolised at 0.05 h / metabolised at 5 min: SD: 0.49 (methyl ester); for metabolised at 5 min: 2.2 (acetoxymethyl ester); for metabolised at 10 min: SD printed on next line: 0.08 (methyl ester); for metabolised at 10 min / metabolised at 0.5 h: 0.0 (acetoxymethyl ester); for metabolised at 0.5 h: 30 min., SD printed on next line: 1.51 (methyl ester)
Experimental: (§1) Changes with time in the hydrolysis rate of 3-carboxy-PROXYL methyl ester and 3-carboxy-PROXYL acetoxymethyl ester by an esterase were examined.
(§2) 200 μl of a 10 mM test sample solution was mixed with 800 μl of 5 micro units of an esterase (carboxy esterase, carboxylic ester hydrolase; EC 3.1.1.1 manufactured by Sigma, catalogue No. E3128). The mixture was incubated at 37° C. for 10 seconds, 1 minute, 3 minutes, 5 minutes, 10 minutes, and 30 minutes, respectively. The mixture was then analyzed by HPLC to calculate the hydrolysis rate from the amount ratio of the unchanged product to 3-carboxy-PROXYL which is a hydrolysate thereof.
(§3) HPLC was performed using a UV-VIS detector (UV-8020), a dual pump (CCPS), a column (ODS-80Ts), and a TSK precolumn (BSA-ODS) all manufactured by Tosoh Corp.
(§4) Mobile phase: 20 mM phosphate buffer solution (pH 2.2)/methanol=60/40

[2] = tested on: esterase (carboxy esterase, carboxylic ester hydrolase; EC 3.1.1.1); test: in vitro; assay type: in vitro ADME
Experimental: as §1, §2, §3, §4

| Compound | Blood (% dose) ([1]; 3 min.) | Brain (% dose) ([1]; 3 min.) | Blood (% dose) ([1]; 10 min.) | Brain (% dose) ([1]; 10 min.) | Blood (% dose) ([1]; 30 min.) | Brain (% dose) ([1]; 30 min.) | brain to blood ratio (ratio of % dose/g of the brain to % dose/g of the blood) ([1]; after 10 minutes) | Kp at 10 min (in vivo) | L band ESR-CT: concentration inside the brain (mouse brain) | L band ESR-CT: concentration outside the brain (mouse brain) | Kp at 0.5 h (in vivo) | metabolised at 10 s (in vitro) | metabolised at 1 min (in vitro) | metabolised at 0.05 h (in vitro) | metabolised at 5 min (in vitro) | metabolised at 10 min (in vitro) | metabolised at 0.5 h (in vitro) | Speed of hydrolysis by esterase compared with methyl ester, in words [2] | Hydrolysis by esterase, in words ([2]; after 10 seconds) |
| --- | --- | --- | --- | --- | --- | --- | --- | --- | --- | --- | --- | --- | --- | --- | --- | --- | --- | --- | --- |
| 2-ethyl-2,5,5-trimethyloxazolidinyloxy | 4.52 % dose | 1.63 % dose | 3.69 % dose | 1.64 % dose | 0.81 % dose | 0.52 % dose | 0.84-1.78 | – | – | – | – | – | – | – | – | – | – | – | – |
| CCOC(=O)C1CC(C)(C)N([O])C1(C)C (centres unmarked) [3-carboxy-PROXYL ethyl ester] | 3.46 % dose | 0.79 % dose | 2.92 % dose | 0.74 % dose | 3.38 % dose | 0.12 % dose | – | 0.84 to 1.78 | – | – | – | – | – | – | – | – | – | – | – |
| CC(=O)OCOC(=O)C1CC(C)(C)N([O])C1(C)C (centres unmarked) [3-carboxy-PROXYL acetoxymethyl ester, acetoxymethyl-2,2,5,5-tetramethylpyrrolidinyloxy-3-carboxylate] | 6.28 % dose | 2.26 % dose | 4.41 % dose | 2.77 % dose | 4.21 % dose | 1.98 % dose | – | 3.14 | still more highly concentrated inside the brain | decreased accumulation outside the brain | 2.88 | 30.1% | 70.8% | 93.9% | 96.7% | 100% | 100% | hydrolyzed by an esterase in a shorter period of time than 3-carboxy-PROXYL methyl ester | slightly hydrolyzed |
| COC(=O)C1CC(C)(C)N([O])C1(C)C (centres unmarked) [3-carboxy-PROXYL methyl ester] | 4.62 % dose | 1.31 % dose | 2.68 % dose | 0.67 % dose | 2.18 % dose | 0.21 % dose | – | 0.84 to 1.78 | highly concentrated inside the brain | concentrated outside the brain | – | 0.05% | 0.4% | 0.8% | 1.35% | 2.54% | 8.25% | – | – |
